Values after ≈ are worked out from the molar mass of the structure shown. Like-named read-outs stand apart in the source and are kept apart here.
What was measured:
Format in all cases: cell-based
Candida albicans GA-24 = assay: Antifungal Activity MIC (in medicinal field); conditions: GA24, read-out: Minimal Inhibitory Concentration (MIC)
[1] = test system: Aspergillus fumigatus Saito; assay: Antifungal Activity MIC (in medicinal field); conditions: read-out: Minimal Inhibitory Concentration (MIC)
[2] = test system: Trichophyton metagrophytes 530324; assay: Antifungal Activity MIC (in medicinal field); conditions: read-out: Minimal Inhibitory Concentration (MIC)
[3] = test system: Cryptococcus neoformans Cr-1; assay: Antifungal Activity MIC (in medicinal field); conditions: CR1, read-out: Minimal Inhibitory Concentration (MIC)
[4] = test system: Trichophyton interdigitale; assay: Antifungal Activity MIC (in medicinal field); conditions: read-out: Minimal Inhibitory Concentration (MIC)
[5] = test system: Staphylococcus epidermidis ATCC 14990; assay: Minimal Inhibitory Concentration Method; conditions: ATCC14990, read-out: Minimal Inhibitory Conc.
[6] = test system: Bacillus subtilis ATCC 6633; assay: Minimal Inhibitory Concentration Method; conditions: ATCC6633, read-out: Minimal Inhibitory Conc.
Salmonella typhi 0-901-W = assay: Minimal Inhibitory Concentration Method; conditions: Salmonella enterica, read-out: Minimal Inhibitory Conc.
Proteus vulgaris OX-19 = assay: Minimal Inhibitory Concentration Method
Shigella dysenteriae = assay: Minimal Inhibitory Concentration Method; conditions: read-out: Minimal Inhibitory Conc.
[7] = test system: Staphylococcus aureus 209P JC-1; assay: Minimal Inhibitory Concentration Method; conditions: Staphylococcus aureus 209P JC-1; read-out: Minimal Inhibitory Conc.
[8] = test system: Serratia marcescens MB-3848; assay: Minimal Inhibitory Concentration Method
Escherichia coli No. 29 = assay: Minimal Inhibitory Concentration Method; conditions: read-out: Minimal Inhibitory Conc.
[9] = test system: Pseudomonas cepacia M-0527; assay: Minimal Inhibitory Concentration Method; conditions: Burkholderia cepacia, M0527, read-out: Minimal Inhibitory Conc.
[10] = MB3848, Serratia marcescens MB-3848, read-out: Minimal Inhibitory Conc.
[11] = OX19, Proteus vulgaris OX-19, read-out: Minimal Inhibitory Conc.

Row | MIC (Candida albicans GA-24) [µg/mL] | MIC [1] [µg/mL] | MIC [2] [µg/mL] | MIC [3] [µg/mL] | MIC [4] [µg/mL] | Structure (SMILES) | MIC [5] [µg/mL] | MIC [6] [µg/mL] | MIC (Salmonella typhi 0-901-W) [µg/mL] | MIC (Proteus vulgaris OX-19; Proteus vulgaris, OX19, read-out: Minimal Inhibitory Conc.) [µg/mL] | MIC (Shigella dysenteriae) [µg/mL] | MIC [7] [µg/mL] | MIC [8, 10] [µg/mL] | MIC (Escherichia coli No. 29) [µg/mL] | MIC [9] [µg/mL] | MIC (Proteus vulgaris OX-19; [11]) [µg/mL] | MIC ([8]; Serratia marcescens, MB3848, read-out: Minimal Inhibitory Conc.) [µg/mL]
1 | 25 (≈ 70.4 µM) | 6.25 (≈ 17.6 µM) | < 0.04 | 3.13 (≈ 8.81 µM) | 0.39 (≈ 1.1 µM) | O=[N+]([O-])c1ccc(-c2nnn(CC#CI)n2)cc1 [Compound No. 37, 2-(1'-iodopropyn-3'-yl)-5-(p-nitrophenyl)tetrazole] | – | – | – | – | – | – | – | – | – | – | –
2 | 6.25 (≈ 10.7 µM) | 6.25 (≈ 10.7 µM) | 0.78 (≈ 1.33 µM) | 6.25 (≈ 10.7 µM) | 0.78 (≈ 1.33 µM) | CCCCCCCc1nnn(CC(I)=C(I)I)n1 [Compound No. 40, 2-(2',3',3'-triiodoallyl)-5-n-heptyltetrazole] | – | – | – | – | – | – | – | – | – | – | –
3 | > 100 | 3.13 (≈ 5.34 µM) | 0.78 (≈ 1.33 µM) | 100 (≈ 171 µM) | ≤ 0.05 | CCCCCCCc1nnnn1CC(I)=C(I)I [Compound No. 41, 1-(2',3',3'-triiodoallyl)-5-n-heptyltetrazole] | – | – | – | – | – | – | – | – | – | – | –
4 | 3.13 (≈ 5.61 µM) | 0.78 (≈ 1.4 µM) | 0.09 (≈ 0.161 µM) | 0.78 (≈ 1.4 µM) | 0.19 (≈ 0.341 µM) | CCCCCc1nnn(CC(I)=C(I)I)n1 [Compound No. 42, 2-(2',3',3'-triiodoallyl)-5-n-pentyltetrazole] | – | – | – | – | – | – | – | – | – | – | –
5 | 12.5 (≈ 22.4 µM) | 0.39 (≈ 0.699 µM) | 0.09 (≈ 0.161 µM) | 50 (≈ 89.6 µM) | ≤ 0.05 | CCCCCc1nnnn1CC(I)=C(I)I [Compound No. 43, 1-(2',3',3'-triiodoallyl)-5-n-pentyltetrazole] | – | – | – | – | – | – | – | – | – | – | –
6 | 50 (≈ 91.9 µM) | 6.25 (≈ 11.5 µM) | 0.39 (≈ 0.717 µM) | 50 (≈ 91.9 µM) | 0.39 (≈ 0.717 µM) | CC(C)(C)c1nnn(CC(I)=C(I)I)n1 [Compound No. 44, 2-(2',3',3'-triiodoallyl)-5-tert.-butyltetrazole] | – | – | – | – | – | – | – | – | – | – | –
7 | – | – | – | – | – | CC(C)(C)c1nnnn1CC(I)=C(I)I [Compound No. 45, 1-(2',3',3'-triiodoallyl)-5-tert.-butyltetrazole] | 0.2 (≈ 0.368 µM) | 0.78 (≈ 1.43 µM) | 50 (≈ 91.9 µM) | 3.13 (≈ 5.75 µM) | 3.13 (≈ 5.75 µM) | 0.78 (≈ 1.43 µM) | 12.5 (≈ 23 µM) | 6.25 (≈ 11.5 µM) | 12.5 (≈ 23 µM) | – | –
8 | 1.56 (≈ 2.94 µM) | 0.39 (≈ 0.736 µM) | ≤ 0.05 | 0.78 (≈ 1.47 µM) | 0.09 (≈ 0.17 µM) | CCCc1nnn(CC(I)=C(I)I)n1 [Compound No. 46, 2-(2',3',3'-triiodoallyl)-5-n-propyltetrazole] | – | – | – | – | – | – | – | – | – | – | –
9 | 6.25 (≈ 11.8 µM) | 0.78 (≈ 1.47 µM) | ≤ 0.05 | 6.25 (≈ 11.8 µM) | 0.09 (≈ 0.17 µM) | CCCc1nnnn1CC(I)=C(I)I [Compound No. 47, 1-(2',3',3'-triiodoallyl)-5-n-propyltetrazole] | – | – | – | – | – | – | – | – | – | – | –
10 | 12.5 (≈ 23.6 µM) | 12.5 (≈ 23.6 µM) | 6.25 (≈ 11.8 µM) | 6.25 (≈ 11.8 µM) | 1.56 (≈ 2.94 µM) | CC(C)c1nnnn1CC(I)=C(I)I [Compound No. 49, 1-(2',3',3'-triiodoallyl)-5-isopropyltetrazole] | – | – | – | – | – | – | – | – | – | – | –
11 | – | – | – | – | – | IC(I)=C(I)Cn1nnnc1Cc1ccccc1 [Compound No. 59, 1-(2',3',3'-triiodoallyl)-5-benzyltetrazole] | 0.2 (≈ 0.346 µM) | 1.56 (≈ 2.7 µM) | 12.5 (≈ 21.6 µM) | – | 0.39 (≈ 0.675 µM) | 1.56 (≈ 2.7 µM) | 3.13 (≈ 5.42 µM) | 0.78 (≈ 1.35 µM) | 3.13 (≈ 5.42 µM) | 1.56 (≈ 2.7 µM) | –

Row | Structure (SMILES) | MIC (Candida albicans GA-24) [µg/mL] | MIC [1] [µg/mL] | MIC [2] [µg/mL] | MIC [3] [µg/mL] | MIC [4] [µg/mL] | MIC [5] [µg/mL] | MIC [6] [µg/mL] | MIC (Salmonella typhi 0-901-W) [µg/mL] | MIC (Proteus vulgaris OX-19; Proteus vulgaris, OX19, read-out: Minimal Inhibitory Conc.) [µg/mL] | MIC (Shigella dysenteriae) [µg/mL] | MIC [7] [µg/mL] | MIC [8, 10] [µg/mL] | MIC (Escherichia coli No. 29) [µg/mL] | MIC [9] [µg/mL] | MIC (Proteus vulgaris OX-19; [11]) [µg/mL] | MIC ([8]; Serratia marcescens, MB3848, read-out: Minimal Inhibitory Conc.) [µg/mL]
12 | CC(C)c1nnn(CC(I)=C(I)I)n1 [Compound No. 48, 2-(2',3',3'-triiodoallyl)-5-isopropyltetrazole] | 12.5 (≈ 23.6 µM) | 3.13 (≈ 5.91 µM) | 0.78 (≈ 1.47 µM) | 12.5 (≈ 23.6 µM) | 0.78 (≈ 1.47 µM) | 0.39 (≈ 0.736 µM) | 0.39 (≈ 0.736 µM) | 12.5 (≈ 23.6 µM) | – | 3.13 (≈ 5.91 µM) | 1.56 (≈ 2.94 µM) | – | 6.25 (≈ 11.8 µM) | 6.25 (≈ 11.8 µM) | 6.25 (≈ 11.8 µM) | 12.5 (≈ 23.6 µM)
